Values quoted from earlier work in US20230348531A1, “ISOLATION AND PURIFICATION OF BACTERIOCIN PRODUCED BY LACTOBACILLUS SAKEI AND ANTIBACTERIAL USE THEREOF AND LACTIC ACID BACTERIA USED” (Zhejiang Gongshang University, priority 2022, published 2023).

Tested on: gram-negative bacteria such as Escherichia coli
Conditions: background statement

Nisin
inhibitory effect on gram-negative bacteria: no inhibitory effect
